Earlier results as cited in patent US9328120B2, “6-cycloalkyl-pyrazolopyrimidinones for the treatment of CNS disorders” (Boehringer Ingelheim International GmbH, priority 2010, dated 2016).

Legend:
human PDE9A = human PDE9A (Homo sapiens (Human), UniProt O76083); details: for inhibition on the isolated enzyme: concentrations of up to 100 micromolar (μM)
Murine PDE9A = Murine PDE9A (Mus musculus (Mouse), UniProt O70628); details: concentrations below 200 micromolar
Chain of Murine PDE9A (O70628 whole entry): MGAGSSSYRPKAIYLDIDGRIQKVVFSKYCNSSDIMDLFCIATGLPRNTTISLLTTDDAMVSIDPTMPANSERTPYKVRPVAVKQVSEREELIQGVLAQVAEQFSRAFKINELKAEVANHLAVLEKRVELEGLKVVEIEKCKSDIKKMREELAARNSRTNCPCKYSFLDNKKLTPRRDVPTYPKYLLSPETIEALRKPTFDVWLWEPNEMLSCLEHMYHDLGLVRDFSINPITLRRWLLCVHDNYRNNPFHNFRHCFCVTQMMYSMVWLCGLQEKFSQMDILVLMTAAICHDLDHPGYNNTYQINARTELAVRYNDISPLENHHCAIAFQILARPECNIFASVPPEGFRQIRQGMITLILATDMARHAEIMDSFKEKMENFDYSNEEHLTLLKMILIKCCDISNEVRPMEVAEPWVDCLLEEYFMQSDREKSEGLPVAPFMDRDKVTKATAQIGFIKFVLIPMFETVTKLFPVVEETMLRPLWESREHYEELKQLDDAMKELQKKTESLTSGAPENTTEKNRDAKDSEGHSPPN

Chain of human PDE9A (O76083 whole entry): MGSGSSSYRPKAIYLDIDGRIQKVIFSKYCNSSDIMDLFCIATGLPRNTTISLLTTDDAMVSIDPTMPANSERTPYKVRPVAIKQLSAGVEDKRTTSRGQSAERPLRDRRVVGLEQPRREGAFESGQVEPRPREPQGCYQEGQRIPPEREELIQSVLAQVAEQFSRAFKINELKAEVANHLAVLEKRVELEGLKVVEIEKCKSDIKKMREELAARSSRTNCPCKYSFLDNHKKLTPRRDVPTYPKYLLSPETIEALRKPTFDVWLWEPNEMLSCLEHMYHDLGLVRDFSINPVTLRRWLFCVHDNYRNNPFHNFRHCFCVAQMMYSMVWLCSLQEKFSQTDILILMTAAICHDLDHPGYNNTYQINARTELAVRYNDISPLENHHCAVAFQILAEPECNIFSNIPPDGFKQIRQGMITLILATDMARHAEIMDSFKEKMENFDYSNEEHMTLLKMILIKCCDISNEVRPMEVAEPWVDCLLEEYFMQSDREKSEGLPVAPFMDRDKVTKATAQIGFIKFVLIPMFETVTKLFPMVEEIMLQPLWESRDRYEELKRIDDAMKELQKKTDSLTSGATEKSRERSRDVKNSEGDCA

SMILES	inhibition on the isolated enzyme (human PDE9A)	IC50 (human PDE9A; isolated human PDE9A enzyme)	inhibition of murine PDE9A (Murine PDE9A)
OCCN(CCO)c1nc(N2CCCCC2)c2nc(N(CCO)CCO)nc(N3CCCCC3)c2n1 [dipyridamole]	no inhibition	–	–
COc1ccc(C2CNC(=O)C2)cc1OC1CCCC1 (stereo not shown) [rolipram]	no inhibition	–	–
CC(=O)Nc1ccc(-c2c[nH]c(=O)cn2)cc1 [SKF94120]	no inhibition	–	–
CC(C)Cn1c(=O)n(C)c(=O)c2[nH]cnc21 [IBMX]	no inhibition	–	not inhibited

The remaining lines, values ahead:

inhibition on the isolated enzyme (human PDE9A)	IC50 (human PDE9A; isolated human PDE9A enzyme)	inhibition of murine PDE9A (Murine PDE9A)	SMILES
–	35 micromolar (μM)	–	CCCOc1ccccc1-c1nc2nn[nH]c2c(=O)[nH]1 [zaprinast]
no inhibition	–	–	CCOC(=O)C1=C[C@]2(CC)CCCN3CCc4c(n1c1ccccc41)[C@@H]32 [vinpocetine]
